Entries after “also recorded” stand apart in the source; their conditions may differ.
Tests used:
SF268 (CNS) = assay: In vitro cytotoxic activity GI50, method (a), SF-268; assay type: cell-based; settings: Homo sapiens, 96 hours incubation, propidium iodide
Procedure: (§1) Compounds were dissolved at 10 mM in DMSO. Dilution in vehicle to concentrations of 30, 10, 3, 1 and 0.3 μM were prepared immediately before assays. Depending on the cell line's growth characteristics, 4000-10000 cells were plated in two 96-wells pates (day 0) and incubated for 16 hours. The following day, propidium iodide was added to one of the two plates and fluorescence measured (Tz). Test compounds were added to the second plate, as well as vehicle control, and cells further incubated for 96 hours. Each compound was tested at each concentration and in triplicates. The equivalent cell number was determined after adding propidium iodide by measuring the signal by fluorescence (C for control).

[1] = system: PC-3 (prostate adenocarcinoma); assay: In vitro cytotoxic activity GI50, method (a), PC-3; assay type: cell-based; settings: 96 hours incubation, propidium iodide
Procedure: as §1

[2] = system: HT-29, SF268, MDA-MB-231 and PC-3 cell lines; assay: In vitro cytotoxic activity, four cell lines together (average, comparison); assay type: cell-based; settings: for anticancer activity compared with Compound 1: Table 12 cell lines
Procedure: as §1

[3] = system: MDA-MB-231 (mammary gland adenocarcinoma); assay: In vitro cytotoxic activity GI50, method (a), MDA-MB-231; assay type: cell-based; settings: Homo sapiens, 96 hours incubation, propidium iodide
Procedure: as §1

[4] = system: HT-29 (colorectal carcinoma); assay: In vitro cytotoxic activity GI50, method (a), HT-29; assay type: cell-based; settings: Homo sapiens, 96 hours incubation, propidium iodide
Procedure: as §1

in vivo = settings: CD-1 nu/nu, mouse, iv
C6 glioblastoma [5] = assay: In vivo efficacy in glioma model, second series (treatment from day 10); set-up: species or system Mus musculus nude mice
Source text: The aim of this study was to test whether Compounds 1 and 2 prevent or delay tumor growth in C6 glioblastoma cell-bearing mice, and to determine an effective dosage regimen. […]
(§2) Tumor Cell Line: The C6 cell line was cloned from a rat glial tumor induced by N-nitrosomethyurea (NMU) according to Premont et al. (Premont J, Benda P, Jard S., [3H] norepinephrine binding by rat glial cells in culture. Lack of correlation between binding and adenylate cyclase activation. Biochim Biophys Acta. 1975 Feb. 13; 381(2):368-76.) after series of alternate culture and animal passages. […] The cells were counted in a hemocytometer and their viability assessed by 0.25% trypan blue exclusion. […]
In a second series of experiments, treatment started at day 10 following inoculation of C6 cells when tumors became palpable (around 100 to 200 mm^3). […] Tumor volume was measured every second day until the end of the treatment using callipers. […]

C6 glioblastoma [6] = assay: In vivo efficacy in glioma model, first series (treatment 24 hrs after inoculation); set-up: species or system Mus musculus nude mice; settings: all treated groups (10-30 mg/kg i.p.), Anova and Dunnett's test
Procedure: The aim of this study was to test whether Compounds 1 and 2 prevent or delay tumor growth in C6 glioblastoma cell-bearing mice, and to determine an effective dosage regimen.
Animal experiments were performed according to ethical guidelines of animal experimentation (Charte du comité d′éthique du CNRS, juillet 2003) and the English guidelines for the welfare of animals in experimental neoplasia (WORKMAN, P., […], P., BALKWILL, F., et al. (1998). United Kingdom Coordinating Committee on Cancer Research (UKCCCR) Guidelines for the welfare of animals in experimental neoplasia (Second Edition, July 1997; British Journal of Cancer, 77:1-10). Any dead or apparently sick mice were promptly removed and replaced with healthy mice. Sick mice were euthanized upon removal from the cage. […]
as §2

[7] = Pharmacokinetic profiles, plasma; assay type: in vivo, female Crl: CD1 mice; settings: female, Crl: CD1, mouse, ip, 30 mg/kg
Procedure: Compounds 1 and 2 were separately dissolved in ethanol (5%), Polysorbate 80 (15%), PEG 400 (5%) and dextrose (5%) at a final concentration of 6 mg/ml (for all parenteral administration routes). For oral […], Compound 1 was solubilized in Cremophor® EL/Ethanol (50%:50%) at a final concentration of 6 mg/ml. Prior to dosing, animals (female Crl: CD1 mice; 6 weeks of age, 22-24 g) were weighed, randomly selected and assigned to the different treatment groups. Compound 1 was administered by the intravenous (iv), subcutaneous (sc), intraperitoneal (ip), or oral (po) route to the assigned animals. Compound 2 was administered by the intravenous (iv), or intraperitoneal (ip) route to the assigned animals. […] Samples were analysed by LC/MS/MS.
Plasma values of Compounds 1 and 2 falling below the limit of quantitation (LOQ) were set to zero.
The following pharmacokinetic parameters were calculated: area under the plasma concentration versus time curve from time zero to the last measurable concentration time point (AUC0-t), area under the plasma concentration versus time curve extrapolated to infinity (AUCinf), maximum observed plasma concentration (Cmax), time of maximum plasma concentration (tmax), apparent first-order terminal elimination rate constant (kel), apparent first-order terminal elimination half-life will be calculated as 0.693/kel (t1/2). […]

[8] = for several days post-injection, ip and iv

For `CC(=O)Oc1cc(OC(C)=O)c2c(c1)N(C/C=C(\C)CC/C=C(\C)CCC=C(C)C)C(=O)c1cccc(OC(C)=O)c1N2` [Compound 25, 4,6,8-triacetoxy-10-farnesyl-5,10-dihydro-dibenzo[b,e][1,4]diazepin-11-one], the GI50 (SF268 (CNS)) was 1.95 µM, the GI50 [1] was 1.2 µM and the “anticancer activity compared with Compound 1” value [2] was “generally more active than Compound 1”. The GI50 ([2]; average of four cell lines, method (a)) was 3.82 µM, the GI50 [3] was 2.79 µM and the GI50 [4] was 9.33 µM.

With `CC(C)=CCC/C(C)=C/CC/C(C)=C/CN1C(=O)c2cccc(O)c2Nc2c(O)cc(O)cc21` [Compound 1, 10-farnesyl-4,6,8-trihydroxy-5,10-dihydrodibenzo[b,e][1,4]diazepin-11-one] the MTD (in vivo) was 150 mg/kg, the “Histological analysis of tumor sections” value (C6 glioblastoma [5]; 20-30 mg/kg, FIG. 3) was “cell density of tumor treated with Compound 1 appears decreased; also recorded: cell density was decreased and the nuclei of remaining tumor cells appeared larger and pycnotic” and the “mean value of the tumor volume of treated groups vs saline group” value (C6 glioblastoma [5]; all treated groups (20-30 mg/kg i.p.), Anova and Dunnett's test) was “significantly reduced”. For the same compound, the “mean value of the tumor volume of treated groups vs saline group” value (C6 glioblastoma [6]) was “significantly reduced” and the AUC [7] was 9.5 µM·h.

In the case of `CC(C)=CCC/C(C)=C/CC/C(C)=C/CN1C(=O)c2cccc(O)c2N(C)c2c(O)cc(O)cc21` [Compound 2, 10-farnesyl-4,6,8-trihydroxy-5-methyl-5,10-dihydro-dibenzo[b,e][1,4]diazepin-11-one], the weight losses [8] is reported as “about 7%” and the MTD (in vivo) is reported as at least 100 mg/kg.

For `CC(C)CCCC(C)CCCC(C)CCN1C(=O)c2cccc(O)c2Nc2c(O)cc(O)cc21` (stereo not drawn) [Compound 23, 10-(3,7,11-trimethyldodecyl)-4,6,8-trihydroxy-5,10-dihydro-dibenzo[b,e][1,4]diazepin-11-one], the “anticancer activity compared with Compound 1” value [2] was “generally more active than Compound 1”.

In the case of `CC(C)=CCC/C(C)=C/CC/C(C)=C/CN1C(=O)c2cccc(O)c2Nc2c1cc(O)c(Br)c2O` [Compound 24, 10-(farnesyl)-7-bromo-4,6,8-trihydroxy-5,10-dihydro-dibenzo[b,e][1,4]diazepin-11-one], the “anticancer activity compared with Compound 1” value [2] is reported as “generally more active than Compound 1”.

Reference: patent publication US20090029972A1, “Dibenzodiazepinone Analogues, Processes for Their Production and Their Use as Pharmaceuticals” (Ecopia BioSciences Inc, priority 2004, published 2009)
